Assays:
ACC1 = ACC1 (Homo sapiens, UniProt Q13085); experiment: In vitro ACC1 inhibition assay (ADP-Glo); assay type: biochemical; conditions: read-out: ACC1
Description: An exemplary procedure for the in vitro ACC inhibition assay, which can be used to determine the inhibitory action of compounds of the invention toward either ACC1 or ACC2, follows. The ADP-Glo™ Kinase Assay kit from Promega was used. The ADP-Glo™ Kinase Assay is a luminescent ADP detection assay to measure enzymatic activity by quantifying the amount of ADP produced during an enzyme reaction. The assay is performed in two steps; first, after the enzyme reaction, an equal volume of ADP-Glo™ Reagent is added to terminate the reaction and deplete the remaining ATP. Second, the Kinase Detection Reagent is added to simultaneously convert ADP to ATP and allow the newly synthesized ATP to be measured using a luciferase/luciferin reaction. Luminescence can be correlated to ADP concentrations by using an ATP-to-ADP conversion curve. The detailed procedure is as follows. 50 μL of the compound being tested (600 uM in DMSO) was added to a 384-well dilution plate. The compound was diluted 1:3 in succession in DMSO for each row for 11 wells. 0.5 μL ACC2 working solution was added to 384-well white Optiplate assay plate. 0.5 μL diluted compound solution in each column from step 2 to assay plate, each row containing 2 replicates. […] The plates were incubated at room temperature for 15 minutes. 5 μL substrate working solution was added to each well to initiate reaction. […] Plates were incubated at room temperature for 60 minutes. 10 μL ADP glo reagent was added. Plates were incubated at room temperature for 40 minutes. 20 μL kinase detection reagent was added.
Data for each concentration, as well as the positive and negative controls were averaged, and the standard deviation calculated. Percent inhibition was calculated by the formula: 100× (average negative control−compound)/(average negative control−average positive control). The IC50 for each compound was calculated by fitting the data with a non-linear regression equation: Y=Bottom+(Top-Bottom)/(1+10^((Log IC50−X)*HillSlope)), where X is the log of compound concentration and Y is percent inhibition.
The compound numbers correspond to the compound numbers in Table 1.

ACC2 = ACC2 (Homo sapiens, UniProt O00763); experiment: In vitro ACC2 inhibition assay (ADP-Glo); assay type: biochemical; conditions: read-out: ACC2
Summary of the method: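 Enzyme (human ACC1 or ACC2) and compound, serially diluted 1:3 over 11 points from a 600 uM DMSO stock, were preincubated 15 min before substrate addition.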

Sequence of ACC2 (O00763 whole entry, species assumed): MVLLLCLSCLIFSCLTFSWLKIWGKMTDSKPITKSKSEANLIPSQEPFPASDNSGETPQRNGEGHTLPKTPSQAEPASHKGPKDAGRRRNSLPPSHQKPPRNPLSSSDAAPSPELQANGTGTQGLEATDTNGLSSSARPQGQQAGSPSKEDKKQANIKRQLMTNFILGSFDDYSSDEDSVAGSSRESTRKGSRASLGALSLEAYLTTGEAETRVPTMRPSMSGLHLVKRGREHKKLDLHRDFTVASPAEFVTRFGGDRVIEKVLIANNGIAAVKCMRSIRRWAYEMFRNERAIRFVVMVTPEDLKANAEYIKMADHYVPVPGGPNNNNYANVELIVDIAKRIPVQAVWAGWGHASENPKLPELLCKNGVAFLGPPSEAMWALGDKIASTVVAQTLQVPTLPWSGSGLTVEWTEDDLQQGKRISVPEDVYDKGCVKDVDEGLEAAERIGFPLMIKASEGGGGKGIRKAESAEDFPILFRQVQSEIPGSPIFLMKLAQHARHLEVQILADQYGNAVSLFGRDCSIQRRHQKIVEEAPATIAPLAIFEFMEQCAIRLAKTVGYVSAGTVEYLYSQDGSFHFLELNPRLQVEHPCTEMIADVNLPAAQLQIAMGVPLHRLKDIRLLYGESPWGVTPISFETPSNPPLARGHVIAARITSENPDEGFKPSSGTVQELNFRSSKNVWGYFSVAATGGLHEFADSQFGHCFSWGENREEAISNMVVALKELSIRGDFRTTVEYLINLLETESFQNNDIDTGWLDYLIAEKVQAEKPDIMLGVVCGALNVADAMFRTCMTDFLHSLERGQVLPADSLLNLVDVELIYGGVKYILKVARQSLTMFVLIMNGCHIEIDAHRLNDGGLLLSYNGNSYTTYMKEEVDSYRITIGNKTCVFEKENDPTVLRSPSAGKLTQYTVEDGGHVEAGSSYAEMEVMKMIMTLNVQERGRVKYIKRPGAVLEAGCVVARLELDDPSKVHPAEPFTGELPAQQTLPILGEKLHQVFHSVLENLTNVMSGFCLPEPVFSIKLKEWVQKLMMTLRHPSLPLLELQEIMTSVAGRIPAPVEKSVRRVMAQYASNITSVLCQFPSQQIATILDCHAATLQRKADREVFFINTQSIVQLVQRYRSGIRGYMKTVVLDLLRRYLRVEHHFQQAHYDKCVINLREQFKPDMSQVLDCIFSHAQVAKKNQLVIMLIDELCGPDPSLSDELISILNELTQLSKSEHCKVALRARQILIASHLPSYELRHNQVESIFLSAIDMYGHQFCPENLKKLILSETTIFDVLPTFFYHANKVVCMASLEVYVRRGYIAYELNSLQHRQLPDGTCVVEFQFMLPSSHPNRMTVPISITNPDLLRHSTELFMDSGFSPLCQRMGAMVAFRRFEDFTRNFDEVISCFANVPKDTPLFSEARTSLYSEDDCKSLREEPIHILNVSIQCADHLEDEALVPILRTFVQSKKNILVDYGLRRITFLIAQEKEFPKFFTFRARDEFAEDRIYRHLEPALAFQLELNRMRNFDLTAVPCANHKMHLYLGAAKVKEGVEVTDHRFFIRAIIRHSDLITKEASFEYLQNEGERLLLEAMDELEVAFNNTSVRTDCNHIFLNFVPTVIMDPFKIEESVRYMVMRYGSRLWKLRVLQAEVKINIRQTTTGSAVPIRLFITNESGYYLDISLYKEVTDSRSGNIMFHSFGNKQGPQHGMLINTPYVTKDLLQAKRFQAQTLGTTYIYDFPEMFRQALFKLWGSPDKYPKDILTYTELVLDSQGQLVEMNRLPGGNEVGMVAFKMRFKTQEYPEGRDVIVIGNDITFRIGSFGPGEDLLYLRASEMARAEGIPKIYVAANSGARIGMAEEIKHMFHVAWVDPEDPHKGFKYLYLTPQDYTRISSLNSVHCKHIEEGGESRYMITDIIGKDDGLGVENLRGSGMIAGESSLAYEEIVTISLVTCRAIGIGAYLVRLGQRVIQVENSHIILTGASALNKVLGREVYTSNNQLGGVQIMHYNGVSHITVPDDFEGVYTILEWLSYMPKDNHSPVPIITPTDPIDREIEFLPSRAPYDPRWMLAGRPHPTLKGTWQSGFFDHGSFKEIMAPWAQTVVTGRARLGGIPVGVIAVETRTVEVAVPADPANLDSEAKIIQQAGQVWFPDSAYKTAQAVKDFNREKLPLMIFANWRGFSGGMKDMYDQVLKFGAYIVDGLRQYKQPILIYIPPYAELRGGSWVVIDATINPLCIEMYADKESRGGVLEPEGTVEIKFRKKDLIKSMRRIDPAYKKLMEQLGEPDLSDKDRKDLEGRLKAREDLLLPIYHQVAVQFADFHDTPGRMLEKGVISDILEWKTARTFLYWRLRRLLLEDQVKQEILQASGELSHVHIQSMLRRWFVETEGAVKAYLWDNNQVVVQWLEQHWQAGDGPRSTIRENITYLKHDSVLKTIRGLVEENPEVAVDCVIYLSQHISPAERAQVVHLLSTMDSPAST

| SMILES | IC50 (ACC1) [nM] | IC50 (ACC2) [nM] |
| --- | --- | --- |
| CCOC(=O)c1sc2c(c1C)c(=O)n(CCS(C)(=O)=O)c(=O)n2CCc1ccccc1 [I-52] | > 50000 | > 50000 |
| CCOC(=O)c1sc2c(c1C)c(=O)n(CCC(N)=O)c(=O)n2CCc1ccccc1 [I-55, ethyl 3-(2-carbamoylethyl)-5-methyl-2,4-dioxo-1-(2-phenylethyl)-1H,2H,3H,4H-thieno[2,3-d]pyrimidine-6-carboxylate] | < 5000 | < 5000 |
| CCOC(=O)c1sc2c(c1C)c(=O)n(CC(=O)O)c(=O)n2CC(O)c1ccccc1 (stereo not drawn) [I-60, 2-[6-(ethoxycarbonyl)-1-(2-hydroxy-2-phenylethyl)-5-methyl-2,4-dioxo-1H,2H,3H,4H-thieno[2,3-d]pyrimidin-3-yl]acetic acid] | < 5000 | < 5000 |
| CCOC(=O)c1sc2c(c1C)c(=O)n(CCc1nnn[nH]1)c(=O)n2CCc1ccccc1 [I-61] | < 5000 | < 5000 |
| CCOC(=O)c1sc2c(c1C)c(=O)n(C(C)(C)C(=O)O)c(=O)n2CCc1ccccc1 [I-70, 2-[6-(ethoxycarbonyl)-5-methyl-2,4-dioxo-1-(2-phenylethyl)-1H,2H,3H,4H-thieno[2,3-d]pyrimidin-3-yl]-2-methylpropanoic acid] | < 1000 | < 1000 |
| CCOC(=O)c1sc2c(c1C)c(=O)n(CC(=O)O)c(=O)n2CC(OC(C)C)c1ccccc1 (stereo not drawn) [I-89, 2-[6-(ethoxycarbonyl)-5-methyl-2,4-dioxo-1-[2-phenyl-2-(propan-2-yloxy)ethyl]-1H,2H,3H,4H-thieno[2,3-d]pyrimidin-3-yl]acetic acid] | < 1000 | < 1000 |
| CCOC(=O)c1sc2c(c1C)c(=O)n(C(C)(C)C(=O)O)c(=O)n2CCc1ccccc1OC [I-93, 2-[6-(ethoxycarbonyl)-1-[2-(2-methoxyphenyl)ethyl]-5-methyl-2,4-dioxo-1H,2H,3H,4H-thieno[2,3-d]pyrimidin-3-yl]-2-methylpropanoic acid] | < 1000 | < 1000 |
| CCOC(=O)c1sc2c(c1C)c(=O)n(C(C)(C)C(=O)O)c(=O)n2C[C@H](OC(C)C)c1ccccc1 [I-108, 2-[6-(ethoxycarbonyl)-5-methyl-2,4-dioxo-1-[(2R)-2-phenyl-2-(propan-2-yloxy)ethyl]-1H,2H,3H,4H-thieno[2,3-d]pyrimidin-3-yl]-2-methylpropanoic acid] | < 100 | < 1000 |
| CCOC(=O)c1sc2c(c1C)c(=O)n(C(C)(C)C(=O)O)c(=O)n2C[C@H](OC)c1ccccc1 [I-110, 2-[6-(ethoxycarbonyl)-1-[(2R)-2-methoxy-2-phenylethyl]-5-methyl-2,4-dioxo-1H,2H,3H,4H-thieno[2,3-d]pyrimidin-3-yl]-2-methylpropanoic acid] | < 1000 | < 1000 |
| CCOC(=O)c1sc2c(c1C)c(=O)n(CC(N)=O)c(=O)n2C[C@H](OC(C)C)c1ccccc1 [I-112, ethyl 3-(carbamoylmethyl)-5-methyl-2,4-dioxo-1-[(2R)-2-phenyl-2-(propan-2-yloxy)ethyl]-1H,2H,3H,4H-thieno[2,3-d]pyrimidine-6-carboxylate] | < 100 | < 1000 |
| CCOC(=O)c1sc2c(c1C)c(=O)n(C(C)(C)C(N)=O)c(=O)n2C[C@H](OC(C)C)c1ccccc1 [I-115, ethyl 3-(1-carbamoyl-1-methylethyl)-5-methyl-2,4-dioxo-1-[(2R)-2-phenyl-2-(propan-2-yloxy)ethyl]-1H,2H,3H,4H-thieno[2,3-d]pyrimidine-6-carboxylate] | < 1000 | < 1000 |
| CCOC(=O)c1sc2c(c1C)c(=O)n(C(C)(C)C(=O)O)c(=O)n2C[C@H](OCC(C)C)c1ccccc1 [I-123, 2-[6-(ethoxycarbonyl)-5-methyl-1-[(2R)-2-(2-methylpropoxy)-2-phenylethyl]-2,4-dioxo-1H,2H,3H,4H-thieno[2,3-d]pyrimidin-3-yl]-2-methylpropanoic acid] | < 100 | < 1000 |
| CCOC(=O)c1sc2c(c1C)c(=O)n(C(C)(C)C(=O)O)c(=O)n2C[C@H](O[C@H](C)CC)c1ccccc1 [I-130, 2-[1-[(2R)-2-[(2R)-butan-2-yloxy]-2-phenylethyl]-6-(ethoxycarbonyl)-5-methyl-2,4-dioxo-1H,2H,3H,4H-thieno[2,3-d]pyrimidin-3-yl]-2-methylpropanoic acid] | < 100 | < 1000 |
| Cc1c(-c2ncco2)sc2c1c(=O)n(C(C)(C)C(=O)O)c(=O)n2C[C@H](OC1CCCCC1)c1ccccc1 [I-140, 2-[1-[(2R)-2-(cyclohexyloxy)-2-phenylethyl]-5-methyl-6-(1,3-oxazol-2-yl)-2,4-dioxo-1H,2H,3H,4H-thieno[2,3-d]pyrimidin-3-yl]-2-methylpropanoic acid] | < 100 | < 1000 |
| Cc1c(-c2ncco2)sc2c1c(=O)n(C(C)(C)C(=O)O)c(=O)n2C[C@H](OC1CCC(=O)CC1)c1ccccc1 [I-145, (R)-2-methyl-2-(5-methyl-6-(oxazol-2-yl)-2,4-dioxo-1-(2-((4-oxocyclohexyl)oxy)-2-phenylethyl)-1,2-dihydrothieno[2,3-d]pyrimidin-3(4H)-yl)propanoic acid] | < 100 | < 1000 |
| Cc1c(-c2ncco2)sc2c1c(=O)n(C(C)(C)C(=O)O)c(=O)n2C[C@H](O[C@H]1CC[C@](C)(O)CC1)c1ccccc1 [I-163, 2-(1-((R)-2-(((1r,4R)-4-hydroxy-4-methylcyclohexyl)oxy)-2-phenylethyl)-5-methyl-6-(oxazol-2-yl)-2,4-dioxo-1,2-dihydrothieno[2,3-d]pyrimidin-3(4H)-yl)-2-methylpropanoic acid] | < 1000 | < 1000 |

Results, then the compound that gave them:

| IC50 (ACC1) [nM] | IC50 (ACC2) [nM] | SMILES |
| --- | --- | --- |
| < 100 | < 1000 | CCOC(=O)c1sc2c(c1C)c(=O)n(C(C)(C)C(=O)O)c(=O)n2CCc1ccccc1CC [I-100, 2-[6-(ethoxycarbonyl)-1-[2-(2-ethylphenyl)ethyl]-5-methyl-2,4-dioxo-1H,2H,3H,4H-thieno[2,3-d]pyrimidin-3-yl]-2-methylpropanoic acid] |
| < 100 | < 1000 | Cc1c(-c2ncco2)sc2c1c(=O)n(C(C)(C)C(=O)O)c(=O)n2C[C@H](OC(C)C)c1ccccc1 [I-119, 2-methyl-2-[5-methyl-6-(1,3-oxazol-2-yl)-2,4-doxo-1-[(2R)-2-phenyl-2-(propan-2-yloxy)ethyl]-1H,2H,3H,4H-thieno[2,3-d]pyrimidin-3-yl]propanoic acid] |
| < 1000 | < 1000 | Cc1c(-c2ncco2)sc2c1c(=O)n(C(C)(C)C(N)=O)c(=O)n2C[C@H](OC(C)C)c1ccccc1 [I-121, 2-methyl-2-[5-methyl-6-(1,3-oxazol-2-yl)-2,4-dioxo-1-[(2R)-2-phenyl-2-(propan-2-yloxy)ethyl]-1H,2H,3H,4H-thieno[2,3-d]pyrimidin-3-yl]propanamide] |
| < 100 | < 1000 | CCc1ccccc1CCn1c(=O)n(C(C)(C)C(=O)O)c(=O)c2c(C)c(-c3ncco3)sc21 [I-133, 2-[1-[2-(2-ethylphenyl)ethyl]-5-methyl-6-(1,3-oxazol-2-yl)-2,4-dioxo-1H,2H,3H,4H-thieno[2,3-d]pyrimidin-3-yl]-2-methylpropanoic acid] |
| < 1000 | < 1000 | CCc1ccccc1CCn1c(=O)n(C(C)(C)C(N)=O)c(=O)c2c(C)c(-c3ncco3)sc21 [I-134, 2-[1-[2-(2-ethylphenyl)ethyl]-5-methyl-6-(1,3-oxazol-2-yl)-2,4-dioxo-1H,2H,3H,4H-thieno[2,3-d]pyrimidin-3-yl]-2-methylpropanamide] |
| < 100 | < 1000 | CCOc1ccccc1CCn1c(=O)n(C(C)(C)C(=O)O)c(=O)c2c(C)c(-c3ncco3)sc21 [I-135, 2-[1-[2-(2-ethoxyphenyl)ethyl]-5-methyl-6-(1,3-oxazol-2-yl)-2,4-dioxo-1H,2H,3H,4H-thieno[2,3-d]pyrimidin-3-yl]-2-methylpropanoic acid] |
| < 1000 | < 1000 | CCOc1ccccc1CCn1c(=O)n(C(C)(C)C(N)=O)c(=O)c2c(C)c(-c3ncco3)sc21 [I-139, 2-[1-[2-(2-ethoxyphenyl)ethyl]-5-methyl-6-(1,3-oxazol-2-yl)-2,4-dioxo-1H,2H,3H,4H-thieno[2,3-d]pyrimidin-3-yl]-2-methylpropanamide] |
| < 1000 | < 1000 | CCCc1ccccc1CCn1c(=O)n(C(C)(C)C(=O)O)c(=O)c2c(C)c(-c3ncco3)sc21 [I-147, 2-methyl-2-[5-methyl-6-(1,3-oxazol-2-yl)-2,4-dioxo-1-[2-(2-propylphenyl)ethyl]-1H,2H,3H,4H-thieno[2,3-d]pyrimidin-3-yl]propanoic acid] |

Source: patent US9453026B2, “ACC inhibitors and uses thereof” (Gilead Apollo, Inc., priority 2011, dated 2016)
